Read-outs that look alike come from different tables or passages of the source.
How the values were obtained:
[1] = test system: human colon carcinoma HCT-116 cells; experiment: MTT cell viability assay, HCT-116; type: cell-based
Procedure: (§1) Human alveolar basal epithelial cell line (A-549) and human colon carcinoma (HCT-116), purchased from ATCC, USA, were used to evaluate the anticancer properties of the compounds. Cells were routinely cultured in RPMI (Roswell Park Memorial Institute Medium), except HCT-116 cells which were cultured in McCoy's medium. All media were supplemented with 10% fetal bovine serum (FBS), 2 mM L-glutamine, 100 units/ml penicillin G sodium, 100 units/ml streptomycin sulphate, and 250 ng/ml amphotericin B. Cells were maintained at sub-confluency at 37° C. in humidified air containing 5% CO2. For sub-culturing, monolayer cells were harvested after trypsin/EDTA treatment at 37° C. Cells were used when confluence had reached 75%. Tested samples were dissolved in dimethyl sulphoxide (DMSO), and then diluted in the assay to begin with the indicated concentration. All cell culture material was obtained from Cambrex BioScience (Copenhagen, Denmark). All chemicals were from Sigma/Aldrich, USA, unless otherwise indicated. All experiments were repeated three times, unless otherwise indicated.
Cytotoxicity of tested samples was measured against different cancer cells using the MTT Cell Viability Assay. The 3-[4,5-dimethylthiazole-2-yl]-2,5-diphenyltetrazolium bromide (MTT) assay is based on the ability of an active mitochondrial dehydrogenase enzyme of living cells to cleave the tetrazolium rings of the yellow MTT and form dark blue insoluble formazan crystals which are largely impermeable to cell membranes, resulting in its accumulation within healthy cells. Dissolution of the cells results in the liberation of crystals, which are then solubilized. The number of viable cells is directly proportional to the level of soluble formazan dark blue color. The extent of the reduction of MTT was quantified by measuring the absorbance at 570 nm.
MTT solution: 5 mg/ml of MTT in 0.9% NaCl.
Acidified isopropanol: 0.04 N HCl in absolute isopropanol.
Cells (0.5×10^5 cells/well), in serum-free media, were plated in a flat bottom 96-well microplate, and treated with 20 μl of different concentrations of the tested samples for 48 h at 37° C., in a humidified 5% CO2 atmosphere. After incubation, media was removed and 40 μl MTT solution/well were added and the cells were incubated for an additional 4 h. MTT crystals were solubilized by adding 180 μl of acidified isopropanol/well and plates were kept at room temperature, followed by photometric determination of the absorbance at 570 nm using a microplate ELISA reader. Triplicate repeats were performed for each concentration and the average was calculated. Data were expressed as the percentage of relative viability compared with the untreated cells compared with the vehicle control, with cytotoxicity indicated by <100% relative viability
The percentage of relative viability was calculated using the following equation: [Absorbance of treated cells/Absorbance of control cells)]×100 Then the half maximal inhibitory concentration (IC50) was calculated from the equation of the concentration vs % of viability curve. Results and Discussion

[2] = test system: normal human alveolar basal epithelial cell line (A-549); experiment: MTT cell viability assay, A-549; type: cell-based; conditions: A-549 versus HCT116
Procedure: as §1, with “Tested samples were dissolved in dimethyl sulphoxide (DMSO), and then diluted in the assay to begin with the indicated concentration. All cell culture material was obtained from Cambrex BioScience (Copenhagen, Denmark). All chemicals were from Sigma/Aldrich, USA, unless otherwise indicated. All experiments were repeated three times, unless otherwise indicated.” left out
(§2) Cytotoxicity of tested samples was measured against different cancer cells using the MTT Cell Viability Assay. […] The extent of the reduction of MTT was quantified by measuring the absorbance at 570 nm. […]
(§3) Cells (0.5×10^5 cells/well), in serum-free media, were plated in a flat bottom 96-well microplate, and treated with 20 μl of different concentrations of the tested samples for 48 h at 37° C., in a humidified 5% CO2 atmosphere. […] MTT crystals were solubilized by adding 180 μl of acidified isopropanol/well and plates were kept at room temperature, followed by photometric determination of the absorbance at 570 nm using a microplate ELISA reader. […]

[3] = MTT cell viability assay, A-549; type: cell-based, human; conditions: compared to the tumor cell line HCT116
Procedure: as §1, with “Tested samples were dissolved in dimethyl sulphoxide (DMSO), and then diluted in the assay to begin with the indicated concentration. All cell culture material was obtained from Cambrex BioScience (Copenhagen, Denmark). All chemicals were from Sigma/Aldrich, USA, unless otherwise indicated. All experiments were repeated three times, unless otherwise indicated.” left out
as §2, §3

[4] = Homo sapiens, HCT-116, 48 h treatment, read-out: IC50 against the colon cancer cell line HCT 116

IC50 [1, 4] | Compound | further results
– | Cc1ccc(NN=C(C=O)C(=O)c2ccc(C(=O)/C(C=O)=N/Nc3ccc(C)cc3)cc2)cc1 [Compound 9a] | IC50 ([1]; 48 h treatment, read-out: IC50 against the colon cancer cell line HCT 116): 126 nM
299 nM | N#Cc1ccccc1N/N=C(/C=O)C(=O)c1ccc(C(=O)/C(C=O)=N/Nc2ccccc2C#N)cc1 [Compound 9b, 2-(2-((E)-1-(4-((Z)-2-(2-(2-cyanophenyl)hydrazineylidene)-3-oxopropanoyl)phenyl)-1,3-dioxopropan-2-ylidene)hydrazineyl)benzonitrile] | –
277 nM | Cc1ccc(N/N=C(\C=O)C(=O)c2cccc(C(=O)/C(C=O)=N/Nc3ccc(C)cc3)n2)cc1 [Compound 11a, (2E,2′E)-3,3′-(pyridine-2,6-diyl)bis(3-oxo-2-(2-(p-tolyl)hydrazineylidene)propanal)] | –
98 nM | N#Cc1ccccc1N/N=C(\C=O)C(=O)c1cccc(C(=O)/C(C=O)=N/Nc2ccccc2C#N)n1 [Compound 11b, 2,2′-(((2E,2′E)-pyridine-2,6-diylbis(1,3-dioxopropan-1-yl-2-ylidene))bis(hydrazin-1-yl-2-ylidene))dibenzonitrile] | Selectivity index [2]: excellent selectivity index; Cytotoxic effects on the normal, non-tumorigenic A-549 cell line [3]: only weak cytotoxic effects; IC50 ([1]; Homo sapiens, HCT-116, 48 h treatment, read-out: IC50 for HCT116 cancer cells): 98 ± 30 nM
126 nM | COc1cccc2c1C(=O)c1c(O)c3c(c(O)c1C2=O)C[C@@](O)(C(=O)CO)C[C@@H]3O[C@H]1C[C@H](N)[C@H](O)[C@H](C)O1 [Doxorubicin, reference compound] | –
